Laboratory results as given in patent US12162888B2, “Carboxamides as ubiquitin-specific protease inhibitors” (Valo Early Discovery, Inc., priority 2018, dated 2024).
Read-outs that look alike come from different tables or passages of the source.

Molecular target: T1, USP25 (USP25-His6, Boston Biochem E-546) (Homo sapiens, UniProt Q9UHP3)
T1 construct: His6 (C); purchased Boston Biochem E-546
T1 sequence (Q9UHP3 1-1055): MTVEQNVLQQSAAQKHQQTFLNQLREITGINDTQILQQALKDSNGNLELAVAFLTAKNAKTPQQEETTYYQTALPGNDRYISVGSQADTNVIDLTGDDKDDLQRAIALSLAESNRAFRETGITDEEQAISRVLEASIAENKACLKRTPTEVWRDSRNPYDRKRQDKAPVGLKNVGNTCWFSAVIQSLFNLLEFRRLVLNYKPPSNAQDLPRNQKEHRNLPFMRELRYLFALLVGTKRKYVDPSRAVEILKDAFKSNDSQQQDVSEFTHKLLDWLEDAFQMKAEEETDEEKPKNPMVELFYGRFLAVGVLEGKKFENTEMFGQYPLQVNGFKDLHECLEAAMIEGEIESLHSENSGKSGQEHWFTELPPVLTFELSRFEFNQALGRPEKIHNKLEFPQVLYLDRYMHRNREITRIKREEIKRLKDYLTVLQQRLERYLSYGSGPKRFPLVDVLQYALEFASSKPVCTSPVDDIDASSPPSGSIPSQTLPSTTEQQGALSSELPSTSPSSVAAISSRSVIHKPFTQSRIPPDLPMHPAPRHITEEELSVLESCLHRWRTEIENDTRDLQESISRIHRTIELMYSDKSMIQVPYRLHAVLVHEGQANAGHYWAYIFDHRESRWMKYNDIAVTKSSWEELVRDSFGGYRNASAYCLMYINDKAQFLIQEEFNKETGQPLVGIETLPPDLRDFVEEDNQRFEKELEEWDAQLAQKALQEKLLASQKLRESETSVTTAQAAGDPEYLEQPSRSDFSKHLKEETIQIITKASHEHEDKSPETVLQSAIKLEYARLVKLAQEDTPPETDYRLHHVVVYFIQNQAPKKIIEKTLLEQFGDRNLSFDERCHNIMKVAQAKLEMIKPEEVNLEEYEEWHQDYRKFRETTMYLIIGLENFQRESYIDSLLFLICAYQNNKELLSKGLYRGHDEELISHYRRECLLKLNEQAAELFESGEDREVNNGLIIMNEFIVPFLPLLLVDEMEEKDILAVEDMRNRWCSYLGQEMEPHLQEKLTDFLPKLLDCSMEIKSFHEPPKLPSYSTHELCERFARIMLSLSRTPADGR
Test: Ubiquitin-Rhodamine 110 Assay for USP25 Activity, Example A-3
Format: biochemical
Conditions: Ubiquitin-Rhodamine 110 assay, Example A-3
Description: Example A-3: Biochemical Assay: Ubiquitin-Rhodamine 110 Assay for USP25 Activity
The assay was performed in a final volume of 9 μL in assay buffer containing 20 mM Tris-HCl (pH 8.0, (1M Tris-HCl, pH 8.0 solution; Corning 46-031-CM)), 3 mM BME (2-Mercaptoethanol; Sigma 63689-25ML-F), 0.03% BGG (0.22 μM filtered, Sigma, G7516-25G), and 0.01% Triton X-100 (Sigma, T9284-10L). Nanoliter quantities of 10-point, 3-fold serial dilution in DMSO was pre-dispensed into 1536 assay plates (Corning, #3724BC) for a final test concentration of 25 μM to 1.3 nM, top to lowest dose, respectively. Enzyme USP25, construct USP25-His6, (Boston Biochem E-546). Concentration and incubation times were optimized for the maximal signal-to-background while maintaining initial velocity conditions at a fixed substrate concentration. The final concentration of the enzyme in the assay was […]. Final substrate (Ub-Rh110; Ubiquitin-Rhodamine 110, R&D Systems #U-555) concentration was 25 nM with [Ub-Rh110]<<Km. 3 μL of 2× enzyme was added to assay plates (pre-stamped with compound) preincubated with […] for 30 minutes and then 3 μL of 2× Ub-Rh110 was added to assay plates. Plates were incubated for 45 minutes at room temperature before addition of 3 μL of stop solution (final concentration of 10 mM citric acid (Sigma, 251275-500G)). Fluorescence was read on the Envision (Excitation at 485 nm and Emission at 535 nm; Perkin Elmer) or on the PheraSTAR (Excitation at 485 nm and Emission at 535 nm; BMG Labtech).
For assay formats Example A-1(a), A-1(b), and A-2, data were reported as percent inhibition compared with control wells based on the following equation: % inh=1−((FLU−AveLow)/(AveHigh−AveLow)) where FLU=measured Fluorescence, AveLow=average Fluorescence of no enzyme control (n=16), and AveHighh=average Fluorescence of DMSO control (n=16). IC50 values were determined by curve fitting of the standard 4 parameter logistic fitting algorithm included in the Activity Base software package: IDBS XE Designer Model 205. Data is fitted using the Levenburg Marquardt algorithm.

SMILES | IC50 (read-out: USP25 A-3 IC50 range) | IC50 (IC50 ranges, read-out: USP25 A-3 IC50)
CCn1ccc2cc(C(=O)N[C@H]3CCc4nc(N5C[C@@H](N)[C@H](C(F)F)C5)ccc4C3)cnc21 [Example 371, N-[(6S)-2-[(3S,4R)-3-amino-4-(difluoromethyl)pyrrolidin-1-yl]-5,6,7,8-tetrahydroquinolin-6-yl]-1-ethyl-1H-pyrrolo[2,3-b]pyridine-5-carboxamide] | > 2000 nM | 
Cc1ccc2c(N)c(C(=O)N[C@H]3CCc4nc(N5C[C@@H](N)[C@H](C(F)F)C5)ncc4C3)sc2n1 [Example 381, 3-amino-N-[(6S)-2-[(3S,4R)-3-amino-4-(difluoromethyl)pyrrolidin-1-yl]-5,6,7,8-tetrahydroquinazolin-6-yl]-6-methylthieno[2,3-b]pyridine-2-carboxamide] | > 2000 nM | 
CO[C@]1(C)CN(c2ccc3c(n2)CC[C@H](NC(=O)c2sc4nc(C)ccc4c2N)C3)C[C@@H]1N [Example 427, 3-amino-N-[(6S)-2-[(3R,4S)-4-amino-3-methoxy-3-methylpyrrolidin-1-yl]-5,6,7,8-tetrahydroquinolin-6-yl]-6-methylthieno[2,3-b]pyridine-2-carboxamide] | 200 to 2000 nM | 
COC[C@H]1[C@H](N)CCN1c1ccc2c(n1)CC[C@H](NC(=O)c1sc3nc(C)ccc3c1N)C2 [Example 419, 3-amino-N-[(6S)-2-[(2R,3R)-3-amino-2-(methoxymethyl)pyrrolidin-1-yl]-5,6,7,8-tetrahydroquinolin-6-yl]-6-methylthieno[2,3-b]pyridine-2-carboxamide] | > 2000 nM | 
Cc1ccc2c(N)c(C(=O)N[C@H]3COc4cc(N5CC6CCC(C5)N6)c(F)cc4C3)sc2n1 [Example 104, 3-amino-N-[(3R)-7-{3,8-diazabicyclo[3.2.1]octan-3-yl}-6-fluoro-3,4-dihydro-2H-1-benzopyran-3-yl]-6-methylthieno[2,3-b]pyridine-2-carboxamide] | 50 to 200 nM | 
COC[C@@H]1CN(c2ccc3c(n2)OC[C@H](NC(=O)c2sc4nc(C)cc(C)c4c2N)C3)C[C@@H]1N [Example 348, 3-amino-N-[(3R)-7-[(3R,4R)-3-amino-4-(methoxymethyl)pyrrolidin-1-yl]-2H,3H,4H-pyrano[2,3-b]pyridin-3-yl]-4,6-dimethylthieno[2,3-b]pyridine-2-carboxamide] | > 2000 nM | 
Cc1cc(C)c2c(N)c(C(=O)N[C@H]3COc4cc(N5CC6CCC(C5)N6)c(C#N)c(F)c4C3)sc2n1 [Example 241, 3-amino-N-[(3R)-6-cyano-7-{3,8-diazabicyclo[3.2.1]octan-3-yl}-5-fluoro-3,4-dihydro-2H-1-benzopyran-3-yl]-4,6-dimethylthieno[2,3-b]pyridine-2-carboxamide] |  | 50 to 200 nM
Cc1ccc2c(N)c(C(=O)N[C@H]3CCc4nc(N5CCN[C@H](C(F)F)C5)ccc4C3)sc2n1 [Example 374, 3-amino-N-[(6S)-2-[(3S)-3-(difluoromethyl)piperazin-1-yl]-5,6,7,8-tetrahydroquinolin-6-yl]-6-methylthieno[2,3-b]pyridine-2-carboxamide] | > 2000 nM | 
Cc1ccc2c(N)c(C(=O)N[C@H]3CCc4nc(N5C[C@@H](N)[C@@]6(CCOC6)C5)ccc4C3)sc2n1 (single isomer, unassigned) [Example 431] | > 2000 nM | 
Cc1ccc2c(N)c(C(=O)N[C@H]3CCc4nc(N5C[C@H]6COC[C@@H](C5)[C@H]6N)ccc4C3)sc2n1 [Example 396] | 200 to 2000 nM | 
Cc1ccc2c(N)c(C(=O)N[C@H]3CCc4nc(N5C[C@H](CF)[C@@H](N)C5)ccc4C3)sc2n1 [Example 384, 3-amino-N-[(6S)-2-[(3R,4S)-3-amino-4-(fluoromethyl)pyrrolidin-1-yl]-5,6,7,8-tetrahydroquinolin-6-yl]-6-methylthieno[2,3-b]pyridine-2-carboxamide] | 200 to 2000 nM | 
Cc1ccc2c(N)c(C(=O)N[C@H]3CCc4nc(N5CC6(C[C@H](N)CO6)C5)ccc4C3)sc2n1 [Example 399, 3-amino-N-[(6S)-2-[(7S)-7-amino-5-oxa-2-azaspiro[3.4]octan-2-yl]-5,6,7,8-tetrahydroquinolin-6-yl]-6-methylthieno[2,3-b]pyridine-2-carboxamide] | 200 to 2000 nM | 
